Data from PMC6015222, “Targeting Phosphopeptide Recognition by the Human BRCA1 Tandem BRCT Domain to Interrupt BRCA1-Dependent Signaling” (Cell Chemical Biology, 2018).

What was measured:
HEK293 cells = test: Cell viability after 1 Gy irradiation (calcein AM dye and cell counting); type: cell-based, human; conditions: 1–100 μM added 1 hr before 1 Gy, viability 7 days later
Protocol: HEK293 cells stably harboring plasmids for Tet-inducible expression of tBRCT domains were seeded at a density of 60,000 cells/35mm dish. Compound addition or inducible expression of BRCA1 tBRCT were performed as indicated, when cells were ∼30% confluent, before exposure to 1Gy irradiation. Cells were replenished with media every 3rd day for 7 days, re-suspended in cell dissociation buffer, which was neutralized in 1x PBS. Cells were mixed thoroughly to ensure single cell suspension before measurement of viability using Calcein AM dye and/or cell counting with a hemocytometer. Cell survival fractions were measured using fluorescence readout of Calcein AM with the Tecan Infinite M1000 Pro reader (485nm excitation and 515nm emission) and data were normalized to untreated controls across treatment groups.

TOPBP1 tBRCT 7/8 = molecular target: T1, TOPBP1 tBRCT 7/8 (Homo sapiens, UniProt Q92547); test: Competitive MST selectivity: TOPBP1 7/8; type: binding
T1 construct: TOPBP1 tBRCT 7/8 residues 1264–1493; made in house; host or cells: E. coli BL21(DE3*)
T1 sequence (Q92547 1264-1493): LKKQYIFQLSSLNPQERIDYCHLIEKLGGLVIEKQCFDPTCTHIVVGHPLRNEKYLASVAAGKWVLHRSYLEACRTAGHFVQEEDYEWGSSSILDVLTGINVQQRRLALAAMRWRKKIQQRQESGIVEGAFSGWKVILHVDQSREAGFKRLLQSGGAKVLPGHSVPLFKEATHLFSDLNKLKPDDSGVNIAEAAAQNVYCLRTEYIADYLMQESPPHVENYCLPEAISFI
Protocol: Protein domains used in the assay were labeled with NT-647-NHS fluorescent dye using the Monolith NT™ Protein Labeling Kit (NanoTemper Technologies). Assays were carried out in 20mM Tris buffer, pH 7.4, with 200mM NaCl, 0.05% Tween-20 and 2mM DTT. For the direct binding assay, 10μl of labeled protein at a final concentration of 20nM was mixed with 10μl of test compound and incubated on ice for 10 min. For the competitive assay, 10μl of labeled protein at a final concentration of 20nM was mixed with 2μM cognate peptide substrate at the EC80 concentration determined by prior titration using a 16-point serial dilution by direct-binding MST. For both assays, samples prepared as above were centrifuged at 15000 rpm at 4°C for 10 min and 4μl of the supernatant was loaded into premium glass capillaries (NanoTemper Technologies). MST analysis was performed at MST power of 40% and LED power of 80%, at 22°C temperature using a Monolith NT.115 (NanoTemper Technologies). An initial “Capillary Scan” was performed to scan for fluorescence across the length of the capillary tray to determine the exact position of each capillary before the MST measurement was started. Test compounds were assayed at 16 different concentrations by serial dilution, and data were analysed using NanoTemper analysis software. Kd values were determined using “T-jump + Thermophoresis” settings. […]

binding to fluorescently labeled TOPBP1 7/8 tBRCT domain (TOPBP1 tBRCT 7/8): does not detectably bind
Compound: O=C(c1ccc2nc(-c3ccccc3)[nH]c2c1)N1CCN(Cc2ccccc2F)CC1 [Bractoppin, (4-(2-fluorobenzyl)piperazin-1-yl) (2-phenyl-1H-benzo[d]imidazol-6-yl) methanone]
effect on cytotoxicity induced by exposure to 1 Gy IR (HEK293 cells): significantly enhances cytotoxicity
